Earlier results on three compounds are cited in patent US11911505B2, “Liquid formulations of hypoglycaemic sulfonamides” (AMMTEK, priority 2012, dated 2024).

For the data set the following is noted: 27° C.

Values after ≈ are worked out from the molar mass of the structure shown.

Consider `CCC1=C(C)CN(C(=O)NCCc2ccc(S(=O)(=O)NC(=O)N[C@H]3CC[C@H](C)CC3)cc2)C1=O` [glimepiride], for which the solubility in water was 38 µg/mL (≈ 77.5 µM). Turning to `CC(=O)c1ccc(S(=O)(=O)NC(=O)NC2CCCCC2)cc1` [acetohexamide], the solubility in water is 48 µg/mL (≈ 148 µM). Take `COc1ccc2c(c1)C(=O)N(CCc1ccc(S(=O)(=O)NC(=O)NC3CCCCC3)cc1)C(=O)C2(C)C` [gliquidone]: the solubility in water was 2 µg/mL (≈ 3.79 µM).
